Reference: US20140336182A1, “Aurora Kinase Modulators and Method of Use” (Amgen Inc., priority 2013, published 2014)

system: HeLa cells; experiment: HeLa cell 24 hr ploidy assay (DNA content); assay type: cell-based; details: Homo sapiens, HeLa, 4N ploidy, average, read-out: 24h_4NPloidy EC50_IP (uM Avg)
Description: HeLa cell 24 hr ploidy assay protocol
The purpose of this assay is to evaluate the ability of selected individual compounds to induce Deoxyribonucleic acid (DNA) content (ploidy) in cells through failed cell division. Cell cycle analysis is a rapid and efficient way to evaluate the status of DNA content (ploidy) of a given cell. HeLa cells (1×10^4 HeLa cells/well) in 100 ul of media (MEM+10% FBS) were plated in 96-well plates (Packard View) and cultured for 24 hrs at 37° C. maintained in a 5% CO2 atmosphere. […] The compounds were serially diluted in DMSO (0.25% final concentration). The cells were fixed (3.7% Formaldehyde and 1% glutaraldehyde) and permeabilized (1×PBS with 1% BSA and 0.2% Triton X-100) in preparation for nuclear staining. The well plates were stained for 45 minutes at RT in the dark using Hoechest 33342 nuclear stain at 0.5 ug.ml (Stock of 10 mg/ml, Invitrogen, CA, Cat #H3570). The nuclear stain was removed by aspiration and the cells were washed with wash buffer. A Cellomics Array Scan Vti plate reader was used to acquire the DNA ploidy data of the cells using Cell Cycle bioapplication. Numbers for each of “valid cell count/well”, “% of 4N cells” and “% of >4Ncells” were calculated with the assistance of an Activity Base 5.1ca software and dose curves were generated using an XLFit software. With XLFit, final EC50 IP and EC50 transit values, as well as the Max and Min, were calculated for each curve.

`Brc1ccc2nccc(Oc3ccc(Nc4nnc(-c5ccccc5)c5ccccc45)cc3)c2c1` [compound 134] was tested. Which EC50 did it give?
The EC50 was 0.091 µM.

With `COc1cnc2c(Oc3ccc(Nc4nnc(-c5ccc(OC)nc5)c5ccccc45)cc3)ccnc2c1` [compound 158] as the compound, how does the EC50 read?
Its EC50 is 0.075 µM.

With `N#Cc1ccc2c(Oc3ccc(Nc4nnc(-c5cccc(O)c5)c5ccccc45)cc3)ccnc2c1` [compound 93] as the compound, how does the EC50 read?
Its EC50 is 0.025 µM.

For `COc1cnc2c(Oc3ccc(Nc4nnc(-c5ccc(OC(F)(F)F)cc5)c5ccccc45)cc3)ccnc2c1` [compound 163], which EC50 is on record?
Its EC50 is > 1.2 µM.

With `COc1cnc2c(Oc3ccc(Nc4nnc(-c5ccc(OC(C)C)cc5)c5ccccc45)cc3)ccnc2c1` [compound 137] as the compound, how does the EC50 read?
The EC50 was 0.85 µM.

How did the EC50 turn out when `COc1cnc2c(Oc3ccc(Nc4nnc(-c5ccc(C)cn5)c5ccccc45)cc3)ccnc2c1` [compound 125] was run?
The EC50 was 0.059 µM.

same assay, conditions: Homo sapiens, HeLa, HeLa cells, 4N ploidy, average, read-out: 24h_4NPloidy EC50_IP (uM Avg)

`COc1cnnc(Nc2ccc(Oc3ccnc4cc(OC)cnc34)cc2)c1` [compound 456] was tested. Which EC50 did it give?
Its EC50 is > 1.2 µM.

For `COc1cnc2c(Oc3ccc(Nc4nnc(-c5ccc(S(C)(=O)=O)cc5)c5ccccc45)cc3)ccnc2c1` [compound 263], which EC50 is on record?
The EC50 was 0.138 µM.

Which EC50 does the source give for `Cc1csc(-c2nnc(Nc3ccc(Oc4ccnc5cccnc45)cc3)c3ccccc23)c1` [compound 447] here?
The EC50 was 0.012 µM.

`c1cnc2c(Sc3ccc(Nc4nnc(-c5ccc6c(c5)OCO6)c5ccccc45)cc3)ccnc2c1` [compound 443] was tested. Which EC50 did it give?
Its EC50 is 0.007 µM.

Which EC50 does the source give for `CCc1cc(-c2ccc(C)s2)nnc1Nc1ccc(Oc2ccnc3cc(OC)cnc23)cc1` [compound 205, 4-ethyl-N-(4-((7-(methyloxy)-1,5-naphthyridin-4-yl)oxy)phenyl)-6-(5-methyl-2-thienyl)-3-pyridazinamine] here?
Its EC50 is 0.074 µM.

For `COCCOCCOc1ccc2nccc(Sc3ccc(Nc4nnc(-c5ccc(Cl)cc5)c5ccccc45)cc3)c2n1` [compound 475], which EC50 is on record?
Its EC50 is 0.017 µM.

For `COc1cnc2c(Sc3ccc(Nc4nnc(OC(C)C)c5ccccc45)cc3)ccnc2c1` [compound 511], which EC50 is on record?
Its EC50 is 0.094 µM.

Which EC50 does the source give for `COc1cnc2c(Oc3ccc(Nc4nnc(-c5ccc(Cl)cc5)c5ccccc45)cc3OC)ccnc2c1` [compound 566] here?
Its EC50 is 0.191 µM.

With `c1ccc(-c2nnc(Nc3ccc(Sc4ccnc5[nH]cnc45)cc3)c3ccccc23)cc1` [compound 362] as the compound, how does the EC50 read?
Its EC50 is 0.105 µM.

Which EC50 does the source give for `Cc1csc(-c2nnc(Nc3ccc(Sc4ccnc5cc(C#N)sc45)cc3)c3ccccc23)c1` [compound 459] here?
The EC50 was 0.048 µM.

With `Cc1csc(-c2nnc(Nc3ccc(Sc4ccnc5ccncc45)cc3)c3ccccc23)c1` [compound 428] as the compound, how does the EC50 read?
The EC50 was 0.016 µM.

For `c1ccc(-c2nnc(Nc3ccc(Oc4ccnc5ccsc45)cc3)c3ccccc23)cc1` [compound 251], which EC50 is on record?
Its EC50 is 0.227 µM.

Which EC50 does the source give for `COc1ccc2ncnc(Oc3ccc(Nc4nnc(-c5cc(C)cs5)c5ccccc45)cc3)c2c1` [compound 565] here?
Its EC50 is 0.03 µM.

Which EC50 does the source give for `COc1cnc2c(Sc3ccc(Nc4nnc(N5CCn6ccnc6C5)c5ccccc45)cc3)ccnc2c1` [compound 576] here?
Its EC50 is 0.013 µM.

`CC(C)n1ccc2nccc(Sc3ccc(Nc4nnc(-c5ccc(Cl)cc5)c5ccccc45)cc3)c21` [compound 471] was tested. Which EC50 did it give?
The EC50 was 0.006 µM.

How did the EC50 turn out when `N#Cc1ccc(-c2nnc(Nc3ccc(Oc4ccnc5cc(C#N)ccc45)cc3)c3ccccc23)cc1` [compound 217] was run?
The EC50 was 0.369 µM.

For `c1ccc2c(-c3ccc4c(c3)CCO4)nnc(Nc3ccc(Oc4ccnc5ccsc45)cc3)c2c1` [compound 272], which EC50 is on record?
Its EC50 is 0.006 µM.

Which EC50 does the source give for `COc1cnc2c(Oc3ccc(Nc4nnc(-c5cnc6ccccc6c5)c5ccccc45)cc3)ccnc2c1` [compound 182] here?
The EC50 was 0.032 µM.

`COc1cnc2c(Sc3ccc(Nc4nnc(C(C)C)c5ccccc45)cc3)ccnc2c1` [compound 558] was tested. Which EC50 did it give?
The EC50 was 0.1 µM.

`Cc1csc(-c2nnc(Nc3ccc(Oc4ccnc5cccnc45)cc3)c3cc(F)c(F)cc23)c1` [compound 510] was tested. Which EC50 did it give?
The EC50 was 0.017 µM.

Which EC50 does the source give for `CCc1cc(-c2ccc(C)cc2)nnc1Nc1ccc(Oc2ccnc3cc(OC)cnc23)cc1` [compound 307] here?
Its EC50 is 0.023 µM.

same assay, conditions: Homo sapiens, HeLa, HeLa cells, 4N ploidy, given as class symbol, read-out: 24h_4NPloidy EC50_IP (uM Avg)

For `Fc1cc(F)c2c(Sc3ccc(Nc4nnc(-c5ccccc5)c5ccccc45)cc3)ccnc2c1` [compound 295], which EC50 is on record?
The EC50 was < 0.1 µM.

same assay, conditions: Homo sapiens, HeLa, HeLa cells, average, read-out: 24h_4NPloidy EC50_IP (uM Avg)

With `COc1ccc2c(C(=O)c3ccc(Nc4nnc(-c5ccc(Cl)cc5)c5ccccc45)cc3)ccnc2c1` [compound 615] as the compound, how does the EC50 read?
Its EC50 is 0.15 µM.
